The values below come from patent US9238812B2, “Agent for suppressing expression of dominant mutant gene” (LSIP, LLC, priority 2010, dated 2016).

One data set deals with wild-type EGFR gene. Put plainly: RT-PCR analysis of wild-type EGFR expression in PC3 cells after siRNA electroporation. Particulars: siRNA 5 μM by electroporation, 24 hours, PCR and electrophoresis. The format is cell-based, human. As for the experimental part:
The human non-small cell lung cancer-derived cell line PC3 cells were cultured at 37° C. under 5% CO2 using an EMEM culture solution (Wako Pure Chemical Industries, Ltd.) containing 10% fetal bovine serum (FBS; Invitrogen Corp.).
The cells cultured in the preceding paragraph (1) were dispersed by trypsin digestion, then collected by centrifugation (120 G, 5 min.) and suspended at a concentration of approximately 1×10^6 cells in 100 μL of an electroporation buffer (Amaxa Cell Line Nucleofector Solution V, Amaxa Biosystems GmbH) containing each EGFR-siRNA (final concentration: 5 μM). These 3 samples for electroporation thus prepared were subjected to nucleic acid introduction (one of the samples was a control experimental group without nucleic acid introduction) by electroporation (program: U-005, gene introduction system Nucleofector, Amaxa Biosystems GmbH) according to the protocol included therein.
The cells of these 3 groups were separately cultured in a 6-well culture plate using the culture solution of the paragraph (1) and collected 24 hours later. […]
The cDNAs obtained in the preceding paragraph (3) were analyzed by PCR using AmpliTaq Gold DNA Polymerase (Applied Biosystems, Inc.) and primers specifically amplifying the EGFR mutation sites and their neighboring sequences. […] Then, the PCR amplification products were analyzed by electrophoresis (7% polyacrylamide gel, 100 mA, 1 hr.).

The test system of data set [1] is PC3 cells. Put plainly: Cell growth and survival activity evaluation (1), MTS/NADH. The format is cell-based, human. The conditions noted are these: PC3 cells after siRNA electroporation; compared with No siRNA and siControl. Here is the method: (§1) PC3 cells were cultured in the same way as in “Example 2(1)”.
(§2) Electroporation was performed in the same way as in “Example 2(2)”.
(§3) The cells were cultured (cell density: approximately 3×10^4 cells/well) in a 96-well culture plate using the culture solution of the paragraph (1). One day and 4 days later, the cells were subjected to each evaluation experiment. si747/49-3D19 was also subjected to similar evaluation experiments, together with a control, 2 days and 6 days after the cell culture.
(§4) In order to evaluate the cell growth and survival activity of PC3 cells after the introduction of si747/49-3D19, MTS reductive effect induced by nicotinamide adenine dinucleotide (NADH) contained in live cells was measured using CellTiter 96 AQueous Non-Radioactive Cell Proliferation Assay (Promega Corp.). The experimental procedures followed the protocol included in the product. Absorbance was measured using BenchMark Plus (Bio-Rad Laboratories, Inc.). The negative controls used were the same two controls (No siRNA and siControl) as in the cell growth ability assay.

Data set [2] deals with PC3 cells subcutaneously transplanted to nude mice. Put plainly: Mouse model with subcutaneous tumor by xenoectopic transplantation of PC3 cells, intratumoral EGFR-siRNA. Particulars: single 1.0 mg/kg dose directly to the tumor with atelocollagen, vs atelocollagen only and siControl; for wet weight of the tumor: 3rd week; for tumor volume (swelling of the subcutaneous tumor): up to 3rd week. Format: in vivo, nude mouse (BALB/cAJcl-nu/nu). As for the experimental part: PC3 cells were subcutaneously transplanted to nude mice to prepare mouse models with subcutaneous tumor. The mouse models were used to test tumor growth inhibitory effects by the administration of each EGFR-siRNA.
The cultured PC3 cells were dispersed by trypsin digestion, then collected by centrifugation (120 G, 5 min.), and resuspended in a serum- and antibiotic-free culture solution (RPMI-1640, Wako Pure Chemical Industries, Ltd.) to adjust the number of cells to 1×10^7 cells/mL. This cell suspension and BD Matrigel Basement Membrane Matrix (Becton, Dickinson and Company) were mixed in equal amounts to adjust the number of cells to 5×10^6 cells/mL. This suspension was subcutaneously administered at a dose of 100 μL (0.5×10^6 cells) to the right flank region of each immunodeficient model nude mouse (5 weeks old, BALB/cAJcl-nu/nu, CLEA Japan, Inc.).
The complexing procedures followed the protocol included therein. The final concentration of each EGFR-siRNA (si747/49-3D 19 or si747/49(A)-8D 19) was set to 0.1 mg/mL.
One week after PC3 cell transplantation (6 weeks old), tumor volume was calculated from tumor diameters. Three samples prepared above, i.e., the siRNA-free atelocollagen solution and 20 μg/200 μL solutions of siControl and each EGFR-siRNA were separately administered once at a dose of 1.0 mg/kg body weight directly to the tumor that reached approximately 50 mm^3. The tumor volume was calculated according to the following equation: Volume=(minor axis)^2×(major axis)×0.5
In the 3rd week after the administration of the siRNA, etc. (9 weeks old) (FIG. 25A, si747/49-3D19; FIG. 28A, si747/49(A)-8D19), the tumor volume was calculated according to the equation. In addition, the tumor was taken out of each mouse (FIG. 25B, si747/49-3D19; FIG. 28B, si747/49(A)-8D19), and its wet weight was measured.

Data set [3] deals with PC3 cells. Put plainly: Cell growth ability (total number of cells) assay, intracellular LDH level. The format is cell-based, human. Particulars: PC3 cells after siRNA electroporation; compared with No siRNA and siControl. Here is the method: as §1, §2, §3
In order to examine time-dependent change in the number of PC3 cells (cell growth ability) after the introduction of si747/49-3D19, intracellular lactate dehydrogenase (LDH) level was measured using CytoTox 96(R) Non-Radioactive Cytotoxicity Assay (Promega Corp.). The experiment was conducted according to the protocol included in the product. Briefly, a cell lysis buffer (Lysis Solution (10×)) included in the assay kit was added to the culture solutions of all sample groups. All LDHs contained in all the cells were released by incubation at 37° C. for 45 minutes. This LDH level was measured to indirectly calculate the total number of cells. Absorbance was measured using BenchMark Plus (Bio-Rad Laboratories, Inc.).

The subject of data set [4] is PC3 cells. Put plainly: Cell growth and survival activity of PC3 cells exposed to gefitinib or EGFR-siRNA at varying concentrations. The format is cell-based, human. Particulars: siRNA 0-100 nM by electroporation, 3 days. Here is the method:
as §4
The analysis employed human non-small cell lung cancer-derived cell line PC3 cells and PC9 cells having EGFR del(L747-E749)-A750P mutation and del(E746-A750) mutation, respectively, and control human HeLa cells having wild-type EGFR.
The cultured PC3 cells, PC9 cells, and HeLa cells were separately dispersed by trypsin digestion, then collected by centrifugation (120 G, 5 min.), and cultured (cell density: approximately 1×10^5 cells/cm^2) in a 96-well culture plate. […] 3 days later, cell survival activity was measured.
3 days later, cell survival activity was measured.
Cell growth and survival activity evaluation (1)”.

r = 2'-OH (RNA)

On to “si747/49(A)-8D19: siRNA against EGFR del(L747-E749)-A750P(A) mutant gene; ss SEQ ID NO 139, as SEQ ID NO 140, 3′ UU added (sense CUAUCAAGGAACCAACAUC; antisense GAUGUUGCUUCCUUGAUAG; RNA, 3' rUrU, backbone not given here)”, for which, in the data set on wild-type EGFR gene, the “expression of the wild-type EGFR gene” value is reported as “without suppressing”. Also, the “cell growth and survival activity (cell survival rate), NADH activity” value with PC3 cells [1] is “significantly suppressed the growth rates of the cells or reduced their survival rates”. In addition, in data set [2], the “wet weight of the tumor” value is “significantly reduced” and the “tumor volume (swelling of the subcutaneous tumor)” value was “significantly suppress the swelling of the subcutaneous tumor”.

“si747/49-3D19: siRNA against EGFR del(L747-E749)-A750P(G) mutant gene; ss SEQ ID NO 55, as SEQ ID NO 56, 3′ UU added (sense GUCGCUAUCAAGGAGCCAA; antisense UUGGCUCCUUGAUAGCGAC; RNA, 3' rUrU, backbone not given here; listed as Homo sapiens)”: the “expression of the wild-type EGFR gene” value in the data set on wild-type EGFR gene is given as “without suppressing”. The “total number of PC3 cells (relative LDH level)” value in the data set with PC3 cells [3] is reported as “significantly decreased”. Also, the “cell growth and survival activity (cell survival rate), NADH activity” value in the data set with PC3 cells [1] is “significantly suppressed the growth rates of the cells or reduced their survival rates”. Moreover, in the data set on PC3 cells [4], the “cell growth and survival activity after EGFR-siRNA” value was “apparently suppress cell growth and reduce survival activity”. Further, in data set [2], the “wet weight of the tumor” value is “significantly reduced” and the “tumor volume (swelling of the subcutaneous tumor)” value was “significantly suppress the swelling of the subcutaneous tumor”.
